In patent publication US20120258922A1, “S[…] LOW-DENSITY L[…]” (Seminis Vegetable Seeds, Inc., priority 2011, published 2012):
Where two headings read alike, the source gives them in different places.

How the values were obtained:
[1] = system: human monocyte-derived macrophages (HMDM); experiment: Macrophage-mediated LDL oxidation in HMDM (oxidized LDL by ELISA and/or TBARS); type: cell-based; conditions: for concentrations that significantly inhibit the oxidation of LDL: agent alone, 100 μg/ml LDL, p<0.01 compared to LDL control (FIG. 1, FIG. 2); for concentrations that significantly inhibit the oxidation of LDL / maximum inhibition of LDL oxidation: HMDM; for maximum inhibition of LDL oxidation: each agent individually, dose-dependent, compared to the LDL control, 100 μg/ml LDL (FIG. 1, FIG. 2); for IC50: α-tocopherol alone
Experimental: Raw broccoli extracts (“BE” or “B. Extract”) were prepared from four hybrids. […] 50 grams of extract were mixed with equal parts 50mM MES buffer pH 6.0 solution. Samples were blended for approximately 1 minute until homogeneous then maintained at room temperature for 10 min. Filtrates from samples were diluted 1:40 with 50 mM MES buffer for the assay. […] Assays with the broccoli extracts were performed as described above.

[2] = system: human monocyte-derived macrophages (HMDM); conditions: each agent individually, at lower doses; LDL-depleted HMDM (FIGS. 8, 9)
Description: (§1) Blood was drawn and collected from healthy human volunteers, and LDL was isolated by density gradient centrifugation following methods known to one of ordinary skill in the art (e.g., Napolitano et al., Int J Biochem Cell Biol, 35:1127-43, 2002). Monocytes were also isolated from the blood and separated by Ficoll Hypaque centrifugation also according to known methods (e.g., Napolitano et al., Eur J Clin Invest, 35:482-90, 2005), followed by negative magnetic separation and maintained in culture with 20% autologous serum or F-10 medium for 5-7 days to differentiate into human monocyte-derived macrophages (HMDM). […] Following the pre-incubation step, LDL (100 μg/ml) was added and the cells were incubated for 24 hours. Supernatants were used for assessing oxidized LDL by ELISA (Mercodia) and/or TBARS (“Thiobarbituric Acid Reactive Substances”) as described previously (Devaraj et al., J Clin Invest 98:756, 1996). To assess the glutathione:glutathione disulfide (GSH:GSSG) ratio as an indicator of the redox poise of the cell, cells were dislodged by PBS-EDTA and were lysed (Pierce MPER) after a freeze-thaw cycle. After sonication and centrifugation, the cell pellet was stored at −80° C. until the relative levels of GSH and GSSG were assayed (Oxis Biochemicals). […]

quinone reductase = conditions: for QUINONE REDUCTASE ACTIVITY, Expt. 1 / QUINONE REDUCTASE ACTIVITY, Expt. 2 / QUINONE REDUCTASE ACTIVITY, Expt. 3 / QUINONE REDUCTASE ACTIVITY, Average: HMDM + LDL; for QUINONE REDUCTASE ACTIVITY, Average: average of Expt. 1-3; for quinone reductase activity (in words): each agent individually, LDL-treated HMDM (Table 1, FIGS. 10A,B)
Description: Blood was drawn and collected from healthy human volunteers, and LDL was isolated by density gradient centrifugation following methods known to one of ordinary skill in the art (e.g., Napolitano et al., Int J Biochem Cell Biol, 35:1127-43, 2002). Monocytes were also isolated from the blood and separated by Ficoll Hypaque centrifugation also according to known methods (e.g., Napolitano et al., Eur J Clin Invest, 35:482-90, 2005), followed by negative magnetic separation and maintained in culture with 20% autologous serum or F-10 medium for 5-7 days to differentiate into human monocyte-derived macrophages (HMDM). […] Following the pre-incubation step, LDL (100 μg/ml) was added and the cells were incubated for 24 hours. Supernatants were used for assessing oxidized LDL by ELISA (Mercodia) and/or TBARS (“Thiobarbituric Acid Reactive Substances”) as described previously (Devaraj et al., J Clin Invest 98:756, 1996). To assess the glutathione:glutathione disulfide (GSH:GSSG) ratio as an indicator of the redox poise of the cell, cells were dislodged by PBS-EDTA and were lysed (Pierce MPER) after a freeze-thaw cycle. After sonication and centrifugation, the cell pellet was stored at −80° C. until the relative levels of GSH and GSSG were assayed (Oxis Biochemicals). Quinone reductase activity was assayed following the method described previously (J. Fahey et al., Methods in Enzymology 382, 243-258, 2004).

NQO1 = experiment: Inhibition of LDL oxidation in HMDM with SiNQO1 silencing; conditions: 100 μg/ml LDL (FIG. 12)
Description: as §1

Structure (SMILES): C[S+]([O-])CCCCN=C=S (stereo not drawn) [sulforaphane]
- effect on LDL oxidation ([1]; 2 μM sulforaphane individually applied (FIG. 11)): reduced LDL oxidation
- concentrations that significantly inhibit the oxidation of LDL [1]: greater than 2 μM
- maximum inhibition of LDL oxidation [1]: 58%
- GSH:GSSG ratio [2]: restored the ratio to normal levels
- QUINONE REDUCTASE ACTIVITY, Expt. 1 (quinone reductase; 2 μM sulforaphane): 151.23 nmol/min/mg protein
- QUINONE REDUCTASE ACTIVITY, Expt. 2 (quinone reductase; 2 μM sulforaphane): 124.23 nmol/min/mg protein
- QUINONE REDUCTASE ACTIVITY, Expt. 3 (quinone reductase; 2 μM sulforaphane): 104.56 nmol/min/mg protein
- QUINONE REDUCTASE ACTIVITY, Average (quinone reductase; 2 μM sulforaphane): 126.6733 nmol/min/mg protein
- quinone reductase activity (in words) (quinone reductase): restored enzymatic activity to normal levels

Structure (SMILES): Cc1c(C)c2c(c(C)c1O)CC[C@@](C)(CCC[C@H](C)CCC[C@H](C)CCCC(C)C)O2 [α-tocopherol]
- effect on LDL oxidation ([1]; 25 μM α-tocopherol individually applied (FIG. 11)): reduced LDL oxidation
- concentrations that significantly inhibit the oxidation of LDL [1]: greater than 12.5 μM
- maximum inhibition of LDL oxidation [1]: 58%
- IC50 ([1]; FIG. 5 experiment): 53.1 µM
- IC50 ([1]; FIG. 7 experiment): 23.6 µM
- GSH:GSSG ratio [2]: restored the ratio to normal levels
- QUINONE REDUCTASE ACTIVITY, Expt. 1 (quinone reductase; 6.25 μM α-tocopherol): 59.87 nmol/min/mg protein
- QUINONE REDUCTASE ACTIVITY, Expt. 2 (quinone reductase; 6.25 μM α-tocopherol): 68.97 nmol/min/mg protein
- QUINONE REDUCTASE ACTIVITY, Expt. 3 (quinone reductase; 6.25 μM α-tocopherol): 41.12 nmol/min/mg protein
- QUINONE REDUCTASE ACTIVITY, Average (quinone reductase; 6.25 μM α-tocopherol): 56.65 nmol/min/mg protein
- QUINONE REDUCTASE ACTIVITY, Expt. 1 (quinone reductase; 12.5 μM α-tocopherol): 66.45 nmol/min/mg protein
- QUINONE REDUCTASE ACTIVITY, Expt. 2 (quinone reductase; 12.5 μM α-tocopherol): 69.47 nmol/min/mg protein
- QUINONE REDUCTASE ACTIVITY, Expt. 3 (quinone reductase; 12.5 μM α-tocopherol): 42.25 nmol/min/mg protein
- QUINONE REDUCTASE ACTIVITY, Average (quinone reductase; 12.5 μM α-tocopherol): 59.39 nmol/min/mg protein
- QUINONE REDUCTASE ACTIVITY, Expt. 1 (quinone reductase; 25 μM α-tocopherol): 68.98 nmol/min/mg protein
- QUINONE REDUCTASE ACTIVITY, Expt. 2 (quinone reductase; 25 μM α-tocopherol): 64.56 nmol/min/mg protein
- QUINONE REDUCTASE ACTIVITY, Expt. 3 (quinone reductase; 25 μM α-tocopherol): 65.14 nmol/min/mg protein
- QUINONE REDUCTASE ACTIVITY, Average (quinone reductase; 25 μM α-tocopherol): 66.23 nmol/min/mg protein
- QUINONE REDUCTASE ACTIVITY, Expt. 1 (quinone reductase; 50 μM α-tocopherol): 77.14 nmol/min/mg protein
- QUINONE REDUCTASE ACTIVITY, Expt. 2 (quinone reductase; 50 μM α-tocopherol): 74.19 nmol/min/mg protein
- QUINONE REDUCTASE ACTIVITY, Expt. 3 (quinone reductase; 50 μM α-tocopherol): 66.23 nmol/min/mg protein
- QUINONE REDUCTASE ACTIVITY, Average (quinone reductase; 50 μM α-tocopherol): 72.52 nmol/min/mg protein
- quinone reductase activity (in words) (quinone reductase): only a modest effect
- effectiveness at inhibiting LDL oxidation after NQO1 silencing (NQO1): reduced but not complete reduction of the effectiveness
